Results: article PMC5218480 (PLoS ONE, 2017)

Test system: MV-4-11 cells
Assay: Gene expression microarray analysis (Affymetrix PrimeView) and GSEA
Type: cell-based, human
Conditions: ProbeSet 11758779_at; LIST B

Nc1ncn([C@@H]2O[C@H](CO)[C@@H](O)[C@H]2O)c(=O)n1 [azacitidine]
RFU, TMEM50B: 84.99 RFU
